This is an account of results in patent US9493446B2, “Orexin receptor antagonists which are [ortho bi-(hetero-)aryl]-[2-(meta bi-(hetero-)aryl)-pyrrolidin-1-yl]-methanone derivatives” (Actelion Pharmaceuticals Ltd, priority 2012, dated 2016).

Like-named read-outs stand apart in the source and are kept apart here.

One experiment deals with human orexin-2 receptor (Homo sapiens (Human), UniProt O43614). As to the kind of experiment: Intracellular calcium measurement (FLIPR), CHO cells expressing human orexin-2 receptor, 3 nM orexin-A. As to conditions: read-out: IC50 OX2. It is filed as cell-based. In short, it runs like this: (§1)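 CHO cells stably expressing each receptor were loaded with 3 μM fluo-4 AM plus 5 mM probenecid for 50 min at 37 °C, then equilibrated 30 min at rt.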
A general note: Calcium assays in cells follow changes in intracellular calcium, usually with a dye or a luminescent sensor.

Another experiment has as its target orexin-1 (Homo sapiens (Human), UniProt O43613). The experiment in a line: Intracellular calcium measurement (FLIPR), CHO cells expressing human orexin-1 receptor, 3 nM orexin-A. It is filed as cell-based. The following applies: read-out: IC50 OX1. The procedure, abridged:
as §1

Setting [1] is: CHO cells expressing human orexin-2 receptor, FLIPR, 3 nM orexin-A, geometric mean if determined several times.
Setting [2] is: CHO cells expressing human orexin-1 receptor, FLIPR, 3 nM orexin-A, geometric mean if determined several times.

Sequence of orexin-1 (O43613 whole entry): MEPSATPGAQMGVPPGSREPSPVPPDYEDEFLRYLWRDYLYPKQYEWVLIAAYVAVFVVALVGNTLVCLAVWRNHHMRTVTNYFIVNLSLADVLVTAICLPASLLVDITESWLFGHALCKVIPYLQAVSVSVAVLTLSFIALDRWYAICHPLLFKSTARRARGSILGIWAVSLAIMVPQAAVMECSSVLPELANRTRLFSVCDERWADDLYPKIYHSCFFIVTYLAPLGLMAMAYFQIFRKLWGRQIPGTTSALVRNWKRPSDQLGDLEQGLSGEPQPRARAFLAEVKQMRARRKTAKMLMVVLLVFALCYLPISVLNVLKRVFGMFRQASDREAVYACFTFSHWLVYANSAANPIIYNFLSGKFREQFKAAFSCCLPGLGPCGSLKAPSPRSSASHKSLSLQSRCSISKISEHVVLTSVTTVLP
Sequence of human orexin-2 receptor (O43614 whole entry): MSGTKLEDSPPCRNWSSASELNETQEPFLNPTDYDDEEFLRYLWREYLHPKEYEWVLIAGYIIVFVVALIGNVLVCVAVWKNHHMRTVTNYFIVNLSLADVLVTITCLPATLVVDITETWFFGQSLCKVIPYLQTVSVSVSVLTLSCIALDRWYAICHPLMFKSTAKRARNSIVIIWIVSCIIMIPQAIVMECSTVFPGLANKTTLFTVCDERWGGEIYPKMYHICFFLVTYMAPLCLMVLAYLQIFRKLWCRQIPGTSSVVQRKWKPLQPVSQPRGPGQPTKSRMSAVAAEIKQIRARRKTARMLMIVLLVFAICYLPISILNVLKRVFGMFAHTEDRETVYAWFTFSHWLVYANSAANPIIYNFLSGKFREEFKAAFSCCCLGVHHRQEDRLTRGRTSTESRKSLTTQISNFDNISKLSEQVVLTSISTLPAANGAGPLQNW

For orientation: IC50 means the concentration that inhibits the measured activity by half. Regarding `COc1cccc(-c2cnc([C@@H]3CCCN3C(=O)c3cc(C)ccc3-n3nccn3)[nH]2)c1` [compound 524, {(S)-2-[5-(3-Methoxy-phenyl)-1H-imidazol-2-yl]-pyrrolidin-1-yl}-(5-methyl-2-[1,2,3]triazol-2-yl-phenyl)-methanone], the IC50 stood at 45 nM on human orexin-2 receptor (setting [1]) and 709 nM at orexin-1 (setting [2]).
`COc1cccc(-c2nnc([C@@H]3CCCN3C(=O)c3cc(C)ccc3-n3nccn3)[nH]2)c1` [compound 513, {(S)-2-[5-(3-Methoxy-phenyl)-4H-[1,2,4]triazol-3-yl]-pyrrolidin-1-yl}-(5-methyl-2-[1,2,3]triazol-2-yl-phenyl)-methanone]: the IC50 on human orexin-2 receptor (setting [1]) amounted to 181 nM; on orexin-1 (setting [2]), 812 nM.
Regarding `Cc1noc(-c2ccccc2C(=O)N2CCC[C@H]2c2nc(-c3cccc(Cl)c3C)no2)n1` [compound 267], the figures for the IC50 at human orexin-2 receptor (setting [1]) and at orexin-1 (setting [2]) were 177 nM and 501 nM, respectively.
With `COc1ccc(C)c(-c2nc([C@@H]3CCCN3C(=O)c3cc(Cl)ccc3-n3nccn3)no2)c1` [compound 416], the concentration for half-maximal inhibition (IC50) on human orexin-2 receptor (setting [1]) came to 20 nM; on orexin-1 it was 152 nM.
As for `O=C(c1ccc(F)cc1-n1nccn1)N1CCC[C@H]1c1nc(-c2ccccc2OC(F)(F)F)no1` [compound 163, (4-Fluoro-2-[1,2,3]triazol-2-yl-phenyl)-{(S)-2-[3-(2-trifluoromethoxy-phenyl)-[1,2,4]oxadiazol-5-yl]-pyrrolidin-1-yl}-methanone], the IC50 was 87 nM at human orexin-2 receptor (setting [1]) and 495 nM at orexin-1 (setting [2]).
For the compound `COc1cc(C)cc(-c2nc([C@@H]3CCCN3C(=O)c3cc(OC)c(Cl)cc3-n3nccn3)no2)c1` [compound 352], the IC50 was 4 nM at human orexin-2 receptor and 19 nM at orexin-1 (setting [2]).
For the compound `COc1cc(C(=O)N2CCC[C@H]2c2nc(-c3ccccc3OC(F)(F)F)no2)c(-n2nccn2)cc1OC` [compound 177, (4,5-Dimethoxy-2-[1,2,3]triazol-2-yl-phenyl)-{(S)-2-[3-(2-trifluoromethoxy-phenyl)-[1,2,4]oxadiazol-5-yl]-pyrrolidin-1-yl}-methanone], the IC50 is 140 nM on human orexin-2 receptor (setting [1]) and 126 nM at orexin-1 (setting [2]).
With `Cc1c(Cl)cccc1-c1noc([C@@H]2CCCN2C(=O)c2cc(Cl)ccc2-n2nccn2)n1` [compound 264], the IC50 on human orexin-2 receptor amounted to 14 nM; on orexin-1 (setting [2]), 165 nM.
`CCc1ccccc1-c1nc([C@@H]2CCCN2C(=O)c2cc(OC)c(Cl)cc2-n2nccn2)no1` [compound 407]: the 50% inhibitory concentration (IC50) on human orexin-2 receptor (setting [1]) was 3 nM; on orexin-1 (setting [2]), 15 nM.
In the case of `COc1cc(C(=O)N2CCC[C@H]2c2noc(-c3cccc(F)c3C)n2)c(-n2nccn2)cc1F` [compound 372, (4-Fluoro-5-methoxy-2-[1,2,3]triazol-2-yl-phenyl)-{(S)-2-[5-(3-fluoro-2-methyl-phenyl)-[1,2,4]oxadiazol-3-yl]-pyrrolidin-1-yl}-methanone], the IC50 at human orexin-2 receptor (setting [1]) was 29 nM; on orexin-1 (setting [2]), 377 nM.
The like results for `CCOc1ncccc1-c1noc([C@@H]2CCCN2C(=O)c2ccc(C(F)(F)F)cc2-n2nccn2)n1` [compound 222, {(S)-2-[3-(2-Ethoxy-pyridin-3-yl)-[1,2,4]oxadiazol-5-yl]-pyrrolidin-1-yl}-(2-[1,2,3]triazol-2-yl-4-trifluoromethyl-phenyl)-methanone] were, in that order, 121 nM and 351 nM.
Regarding `Cc1ccc(-n2nccn2)c(C(=O)N2CCC[C@H]2c2cc(-c3cccc(C)c3C)no2)c1` [compound 422, {(S)-2-[3-(2,3-Dimethyl-phenyl)-isoxazol-5-yl]-pyrrolidin-1-yl}-(5-methyl-2-[1,2,3]triazol-2-yl-phenyl)-methanone], the half-maximal inhibitory concentration (IC50) is 4 nM on human orexin-2 receptor (setting [1]) and 152 nM at orexin-1 (setting [2]).
`COc1c(Cl)cccc1-c1nc([C@@H]2CCCN2C(=O)c2cc(Cl)ccc2-n2nccn2)no1` [compound 357]: the IC50 at human orexin-2 receptor worked out at 17 nM; on orexin-1 (setting [2]), 81 nM.
With `CCOc1ncccc1-c1nnc([C@@H]2CCCN2C(=O)c2cc(OC)c(Cl)cc2-n2nccn2)[nH]1` [compound 478], the IC50 at human orexin-2 receptor (setting [1]) is 11 nM; on orexin-1 (setting [2]) it was 27 nM.
As to `O=C(c1ccc(Cl)cc1-n1nccn1)N1CCC[C@H]1c1noc(-c2ccccc2OC(F)(F)F)n1` [compound 376], the results for the IC50 at human orexin-2 receptor (setting [1]) and at orexin-1 were 11 nM and 23 nM, respectively.
As for `CCOc1c(F)cccc1-c1nc([C@@H]2CCCN2C(=O)c2cc(OC)c(C)cc2-n2nccn2)no1` [compound 323, {(S)-2-[5-(2-Ethoxy-3-fluoro-phenyl)-[1,2,4]oxadiazol-3-yl]-pyrrolidin-1-yl}-(5-methoxy-4-methyl-2-[1,2,3]triazol-2-yl-phenyl)-methanone], the IC50 is 1 nM at human orexin-2 receptor (setting [1]) and 9 nM on orexin-1 (setting [2]).
On to `Cc1ccc(-n2nccn2)c(C(=O)N2CCC[C@H]2c2nc(-c3ccccc3Cl)no2)c1` [compound 21], for which the IC50 on human orexin-2 receptor (setting [1]) turned out to be 19 nM; at orexin-1 (setting [2]), 339 nM.
In the case of `COc1c(F)cccc1-c1noc([C@@H]2CCCN2C(=O)c2cc(C)c(C)cc2-n2nccn2)n1` [compound 196, (4,5-Dimethyl-2-[1,2,3]triazol-2-yl-phenyl)-{(S)-2-[3-(3-fluoro-2-methoxy-phenyl)-[1,2,4]oxadiazol-5-yl]-pyrrolidin-1-yl}-methanone], the IC50 came out at 2 nM at human orexin-2 receptor (setting [1]) and 10 nM at orexin-1 (setting [2]).
The like results for `COc1cc(C(=O)N2CCC[C@H]2c2noc(-c3cc(C)ccc3OC)n2)c(-n2nccn2)cc1C` [compound 387, {(S)-2-[5-(2-Methoxy-5-methyl-phenyl)-[1,2,4]oxadiazol-3-yl]-pyrrolidin-1-yl}-(5-methoxy-4-methyl-2-[1,2,3]triazol-2-yl-phenyl)-methanone] were, in that order, 3 nM and 57 nM.
The like results for `CCOc1ncccc1-c1noc([C@@H]2CCCN2C(=O)c2cc(OC)c(C)cc2-c2ncccn2)n1` [compound 287, {(S)-2-[3-(2-Ethoxy-pyridin-3-yl)-[1,2,4]oxadiazol-5-yl]-pyrrolidin-1-yl}-(5-methoxy-4-methyl-2-pyrimidin-2-yl-phenyl)-methanone] were, in that order, 42 nM and 73 nM.
Turning to `COc1cc(C(=O)N2CCC[C@H]2c2nc(-c3ccccc3C(F)(F)F)no2)c(-n2nccn2)cc1C` [compound 182, (5-Methoxy-4-methyl-2-[1,2,3]triazol-2-yl-phenyl)-{(S)-2-[3-(2-trifluoromethyl-phenyl)-[1,2,4]oxadiazol-5-yl]-pyrrolidin-1-yl}-methanone], the values for the IC50 on human orexin-2 receptor (setting [1]) and at orexin-1 (setting [2]) were 29 nM and 276 nM, respectively.
Turning to `Cc1ccc(-n2nccn2)c(C(=O)N2CCC[C@H]2c2noc(-c3ccccc3)n2)c1` [Example 302, (5-Methyl-2-[1,2,3]triazol-2-yl-phenyl)-[(S)-2-(5-phenyl-[1,2,4]oxadiazol-3-yl)-pyrrolidin-1-yl]-methanone], the IC50 at human orexin-2 receptor (setting [1]) is 207 nM; at orexin-1 (setting [2]), 258 nM.
As for `O=C(c1ccc(C(F)(F)F)cc1-n1nccn1)N1CCC[C@H]1c1nc(-c2ccccc2OC(F)(F)F)no1` [compound 173, (2-[1,2,3]Triazol-2-yl-4-trifluoromethyl-phenyl)-{(S)-2-[3-(2-trifluoromethoxy-phenyl)-[1,2,4]oxadiazol-5-yl]-pyrrolidin-1-yl}-methanone], the IC50 at human orexin-2 receptor (setting [1]) is 116 nM; at orexin-1 (setting [2]) it was 132 nM.
In the case of `Cc1ccc(C)c(-c2nc([C@@H]3CCCN3C(=O)c3cc(C)c(C)cc3-n3nccn3)no2)c1` [compound 402, {(S)-2-[5-(2,5-Dimethyl-phenyl)-[1,2,4]oxadiazol-3-yl]-pyrrolidin-1-yl}-(4,5-dimethyl-2-[1,2,3]triazol-2-yl-phenyl)-methanone], the IC50 on human orexin-2 receptor (setting [1]) was determined as 2 nM; on orexin-1 (setting [2]), 164 nM.
On to `COc1c(F)cccc1-c1nc([C@@H]2CCCN2C(=O)c2ccc(Cl)cc2-n2nccn2)no1` [compound 378], for which the IC50 on human orexin-2 receptor was 2 nM; on orexin-1 (setting [2]), 30 nM.
In the case of `Cc1ccc(C(=O)N2CCC[C@H]2c2cc(-c3cccc(Cl)c3C)n[nH]2)c(-n2nccn2)c1` [compound 531], the results for the IC50 on human orexin-2 receptor (setting [1]) and at orexin-1 were 57 nM and 255 nM, respectively.
Take `CCCOc1ccccc1-c1nnc([C@@H]2CCCN2C(=O)c2cc(C)ccc2-n2nccn2)[nH]1` [compound 515, (5-Methyl-2-[1,2,3]triazol-2-yl-phenyl)-{(S)-2-[5-(2-propoxy-phenyl)-4H-[1,2,4]triazol-3-yl]-pyrrolidin-1-yl}-methanone]: the IC50 at human orexin-2 receptor (setting [1]) was 646 nM; on orexin-1 (setting [2]), 400 nM.
`CCOc1c(F)cccc1-c1nc([C@@H]2CCCN2C(=O)c2cc(Cl)ccc2-n2nccn2)no1` [compound 327]: the IC50 was 4 nM at human orexin-2 receptor and 38 nM on orexin-1 (setting [2]).
For `COc1c(F)cccc1-c1noc([C@@H]2CCCN2C(=O)c2ccc(Cl)cc2-n2nccn2)n1` [compound 204], the figures for the IC50 on human orexin-2 receptor and at orexin-1 (setting [2]) were 10 nM and 65 nM, respectively.
`Cc1ccc(-n2nccn2)c(C(=O)N2CCC[C@H]2c2nc(-c3cccc(C)c3Cl)no2)c1` [compound 27]: the IC50 on human orexin-2 receptor turned out to be 8 nM; at orexin-1 (setting [2]), 125 nM.
As to `COc1c(Cl)cccc1-c1nc([C@@H]2CCCN2C(=O)c2ccc(Cl)cc2-n2nccn2)no1` [compound 349], the half-maximal inhibitory concentration (IC50) on human orexin-2 receptor (setting [1]) came to 3 nM; at orexin-1 (setting [2]), 27 nM.
For the compound `COc1cccc(-c2noc([C@@H]3CCCN3C(=O)c3cc(C)ccc3-n3nccn3)n2)c1Cl` [compound 70], the IC50 on human orexin-2 receptor is 53 nM; at orexin-1 (setting [2]), 623 nM.
As to `O=C(c1cc(OC(F)(F)F)ccc1-n1nccn1)N1CCC[C@H]1c1nc(-c2ccccc2OC(F)(F)F)no1` [compound 150, (2-[1,2,3]Triazol-2-yl-5-trifluoromethoxy-phenyl)-{(S)-2-[3-(2-trifluoromethoxy-phenyl)-[1,2,4]oxadiazol-5-yl]-pyrrolidin-1-yl}-methanone], the IC50 at human orexin-2 receptor (setting [1]) turned out to be 341 nM; on orexin-1 (setting [2]), 457 nM.
